{
  "source": "ChEMBL document CHEMBL1201862",
  "about": "“PubChem BioAssay data set” (2004)",
  "key": {"[1]": {"assay": "A cytotoxicity screen of small molecule inhibitors of the PhoP region in Salmonella typhi identified in the primary screen. [Related pubchem assays: 1850, 1864, 1985 ]", "type": "functional"}, "[2]": {"biological_target": "T1, Protein skinhead-1 (Caenorhabditis elegans, UniProt P34707)", "T1 sequence (P34707 whole entry)": "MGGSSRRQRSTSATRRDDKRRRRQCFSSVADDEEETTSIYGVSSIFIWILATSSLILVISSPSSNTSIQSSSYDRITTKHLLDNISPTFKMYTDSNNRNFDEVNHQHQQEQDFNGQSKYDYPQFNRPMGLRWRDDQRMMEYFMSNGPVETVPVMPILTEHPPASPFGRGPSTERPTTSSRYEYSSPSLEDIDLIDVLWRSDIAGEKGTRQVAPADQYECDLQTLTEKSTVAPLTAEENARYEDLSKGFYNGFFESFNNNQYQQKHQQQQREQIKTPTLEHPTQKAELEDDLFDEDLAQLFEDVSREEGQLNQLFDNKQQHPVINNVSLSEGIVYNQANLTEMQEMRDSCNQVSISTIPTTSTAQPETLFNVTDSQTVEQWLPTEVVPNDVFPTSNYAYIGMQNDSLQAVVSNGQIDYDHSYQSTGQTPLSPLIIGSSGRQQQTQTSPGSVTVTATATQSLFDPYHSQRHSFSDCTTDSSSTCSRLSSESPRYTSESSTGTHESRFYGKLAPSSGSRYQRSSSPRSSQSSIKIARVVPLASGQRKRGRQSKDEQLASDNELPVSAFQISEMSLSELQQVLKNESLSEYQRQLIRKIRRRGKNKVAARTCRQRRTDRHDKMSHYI", "type": "functional"}, "[3]": {"biological_target": "T2, Cytochrome P450 3A4 (Homo sapiens, UniProt P08684)", "T2 sequence (P08684 whole entry)": "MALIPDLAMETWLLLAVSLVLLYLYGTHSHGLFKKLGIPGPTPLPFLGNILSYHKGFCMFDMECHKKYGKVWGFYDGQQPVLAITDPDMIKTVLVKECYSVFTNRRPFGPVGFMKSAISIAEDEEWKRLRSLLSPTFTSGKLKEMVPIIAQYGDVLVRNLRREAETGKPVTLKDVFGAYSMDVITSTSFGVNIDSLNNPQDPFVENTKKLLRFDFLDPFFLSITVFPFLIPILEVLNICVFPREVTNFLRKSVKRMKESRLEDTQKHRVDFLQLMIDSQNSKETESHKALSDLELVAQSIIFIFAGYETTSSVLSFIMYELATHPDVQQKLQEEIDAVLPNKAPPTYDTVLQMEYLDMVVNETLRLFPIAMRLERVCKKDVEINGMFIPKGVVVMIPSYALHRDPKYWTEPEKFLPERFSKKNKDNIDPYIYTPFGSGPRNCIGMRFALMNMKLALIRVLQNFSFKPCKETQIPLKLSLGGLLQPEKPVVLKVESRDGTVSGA", "conditions": "Potency"}, "[4]": {"assay": "viability of uninfected HEp-2 cells – cell-based, HTS, cytotoxicity control for RSV inhibitor project, dose response (AID 2410)", "type": "functional", "conditions": "human respiratory syncytial virus"}, "[5]": {"biological_target": "T2, Cytochrome P450 3A4"}, "[6]": {"assay": "blockers of HIV-1 ZM109 envelope-driven cell-cell fusion – HeLa effector, CEM target cells, luciferase, cherry-pick, dose response (AID 652058)", "type": "functional, cell-based"}, "[7]": {"assay": "blockers of HIV-1 envelope-mediated cell-cell fusion – cherry-pick, dose response (AID 652057)", "type": "functional, cell-based"}, "[8]": {"assay": "HIV-1 AD8 envelope cell-cell fusion blockers – cherry-pick, dose response (AID 652062);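 note: luciferase signal from cell-cell fusion driven by HIV-1 clade B AD8 Env; potency is for inhibitors of fusion seen as a drop in luminescence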", "type": "functional, cell-based"}, "[9]": {"assay": "intracellular Trypanosoma cruzi inhibitors in host cells – cell-based, plate reader, cherry-pick samples, set 3, dose response (AID 651818);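 note: compounds incubated with infected cells for about four days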", "type": "functional"}},
  "note": "The source made the active and inactive calls.",
  "data": [
    {"compound": "CC(=O)OC1=C(O)C(=O)c2ccccc2C1=O", "values": [
      {"measurement": "EC50", "setting": "[1]", "value": "> 50 µM (active)"}
    ]},
    {"compound": "O=C(Nc1nc2ccccc2s1)c1ccccc1", "values": [
      {"measurement": "IC50", "setting": "[2]", "value": "> 100 µM (inactive)"}
    ]},
    {"compound": "CC(=O)OC1CC2C(C)(C)C(=O)[C@@H]3OC3[C@@]2(C)C2CC[C@]3(C)C(=CC(=O)OC3c3ccoc3)[C@]12C", "note": "(some centres undefined)", "values": [
      {"measurement": "AC50", "setting": "[3]", "value": "15.8 µM (inconclusive)"}
    ]},
    {"compound": "Cc1ccc(-c2cc(C(F)F)n3ncc(C(=O)N4CCN(c5cccc(C)c5C)CC4)c3n2)cc1", "values": [
      {"measurement": "CC50", "setting": "[4]", "value": "10.2 µM (active)"},
      {"measurement": "IC50", "setting": "[2]", "value": "> 100 µM (inactive)"}
    ]},
    {"compound": "COc1ccc(C2OCC3(COC(C)=O)C(C)C=C(C)C2C3C)cc1", "note": "(centres undefined)", "values": [
      {"measurement": "AC50", "setting": "[3]", "value": "15.8 µM (inconclusive)"}
    ]},
    {"compound": "O=C(Cn1c(C(F)(F)F)nc2ccccc21)c1ccc(F)cc1", "values": [
      {"measurement": "IC50", "setting": "[2]", "value": "> 100 µM (inactive)"},
      {"measurement": "AC50", "setting": "[5]", "value": "12.6 µM (inconclusive)"}
    ]},
    {"compound": "Cc1nnc(SCC(=O)Nc2cc(S(=O)(=O)N3CCCC3)ccc2Cl)s1", "values": [
      {"measurement": "EC50", "setting": "[1]", "value": "> 50 µM (active)"}
    ]},
    {"compound": "CCC12C=CCN3CCC4(c5ccc(OC)cc5N(C)C4[C@@](O)(C(=O)OC)C1OC(C)=O)C32", "note": "(some centres undefined)", "values": [
      {"measurement": "AC50", "setting": "[3]", "value": "3.98 µM (inconclusive)"}
    ]},
    {"compound": "CCN(CC)C(=O)C(=O)c1cn(CC(=O)N2CCc3ccccc3C2)c2ccccc12", "values": [
      {"measurement": "EC50", "setting": "[1]", "value": "> 50 µM (active)"}
    ]},
    {"compound": "CO[C@@H](CN(C)S(=O)(=O)c1ccc(Cl)cc1)[C@H](C)CN([C@@H](C)CO)S(=O)(=O)c1cccc(Cl)c1", "values": [
      {"measurement": "AC50", "setting": "[6]", "value": "19.1 µM (active)"},
      {"measurement": "AC50", "setting": "[7]", "value": "20 µM (active)"},
      {"measurement": "AC50", "setting": "[8]", "value": "8.73 µM (active)"}
    ]},
    {"compound": "O=S(=O)(Nc1ncccn1)c1ccc(NC(=S)Nc2ccc(Cl)cc2)cc1", "values": [
      {"measurement": "EC50", "setting": "[1]", "value": "> 50 µM (active)"}
    ]},
    {"compound": "CNC[C@H]1Oc2c(NC(=O)Nc3ccc(OC)cc3)cccc2C(=O)N([C@H](C)CO)C[C@@H]1C", "values": [
      {"measurement": "AC50", "setting": "[9]", "value": "20 µM (inactive)"}
    ]},
    {"compound": "C[C@@H]1CN([C@@H](C)CO)C(=O)c2cccc(NC(=O)Nc3ccc(C(F)(F)F)cc3)c2O[C@@H]1CN(C)Cc1ccc(C(=O)Nc2ccccc2N)cc1", "values": [
      {"measurement": "AC50", "setting": "[9]", "value": "0.787 µM (active)"}
    ]},
    {"compound": "COC(=O)c1ccc(NC(=O)CO/N=C2\\CCCc3nonc32)cc1", "values": [
      {"measurement": "EC50", "setting": "[1]", "value": "> 50 µM (active)"}
    ]},
    {"compound": "O=C(NC(=S)Nc1cccc2c(O)cccc12)c1cccc(Br)c1", "values": [
      {"measurement": "IC50", "setting": "[2]", "value": "> 100 µM (inactive)"}
    ]}
  ]
}
